In assay [1] the target is T1, type I collagen films (fibrillar collagen) (Rattus norvegicus, UniProt P02454+P02466).
T1 construct: Collagen solution (200 μL, 3.71 mg/mL, type I rat tail, BD Science); purchased BD Science; host or cells: rat tail
In words: Photo-triggered CMP binding assay on collagen films. The procedure: Collagen/gelatin binding assays. Collagen solution (200 μL, 3.71 mg/mL, type I rat tail, BD Science) in 0.02 N acetic acid was added to each well of a 96-well black/clear-bottom plate (Costar) and air-dried. To make gelatin films, the same collagen solution was denatured at 70° C. for 15 minutes before applying to the well. The dried films were neutralized and washed with 1×PBS buffer (pH 7.4) and deionized water. PBS solution of carboxyfluorescein-labeled caged CMP (40 μL, 50 μM, unless indicated otherwise) pre-equilibrated at 4° C. was added onto each reconstituted collagen or gelatin film and exposed to 365 nm UV light (10 mW/cm^2, from mercury arc lamp) for 11 minutes on ice. Wells for the UV-negative control groups were covered with aluminum foil to block UV exposure. After incubation at 4° C. for over 3 hours (unless indicated otherwise), the unbound materials were removed by rinsing with PBS buffer and deionized water. The films were allowed to dry in dark, after which the fluorescence (ex: 489 nm, em: 533 nm) was measured with a SpectraMax Gemini XPS microplate reader (Molecular Devices). Each binding experiment was done in triplicate.

The subject of assay [2] is type I and type II gelatin. The experiment in a line: CMP binding assay on thermally-denatured type I and II collagens (coatings). Details: species or system rat (type I), bovine (type II). Conditions: UV-exposed, 20 μM, room temperature. As to the method: CMP binding assay on thermally-denatured type I and II collagens. A solid-state protein coating instead of a reconstituted gelatin film (as described above) was chosen as the binding substrate to avoid the collagen type dependent film instability. Wells of nunc black 96-well maxisorp plate (Thermo Scientific) were charged with 50 μL of 1×PBS buffer containing 100 μg/mL type I or type II (bovine, BD Science) collagen which was denatured by 10 minutes of incubation at 75° C. After 1 hour, the coating solutions were removed and wells were washed with 1×PBS buffer containing 1 mg/mL BSA (PBSB), and blocked with 50 mg/mL BSA in PBS for 1 hour, followed by additional wash with PBSB. CF^NB(GPO)9 (SEQ ID NO: 4) or CF^SG9P9O9 (SEQ ID NO: 5) solution (20 μM, 50 μL in PBS) was added to each well, exposed to UV light for 10 min, and incubated at room temperature for 2.5 hours. Wells were washed three times with 100 μL of PBSB followed by fluorescence (ex: 489 nm, em: 533 nm) reading with a SpectraMax M-2 microplate reader (Molecular Devices). Each binding experiment was done in triplicate. The background fluorescence of empty wells was subtracted from the raw fluorescence data.

The subject of assay [3] is collagens in fixed tissue sections (skin, cornea, bone). In words: Immunohistochemistry of fixed tissue sections with UV-activated caged CMP. Details: species or system mouse. Conditions: UV-activated on tissue. The source says:
For immunohistochemical staining, anti-collagen I antibody was purchased from Abcam (ab292, Cambridge, Mass.); bovine serum albumin (BSA), goat serum, and Triton X-100 were purchased from Sigma-Aldrich; DAPI was obtained from Roche Applied Science (Indianapolis, Ind.); Alexa Fluor® 594 F(ab′)2 fragment of goat anti-rabbit IgG and Prolong® Gold antifade reagent were purchased from Life Technologies. The skin and cornea tissues were harvested from a 23 month-old wild-type C57BL/6 mouse. The tissues were fixed with 4% paraformaldehyde in PBS solution (pH 7.4) for 1 hour and cryopreserved in Tissue-Tek O.C.T. medium (Sakura Finetek, Torrance, Calif.). Cryosections of 8 μm thickness were obtained and mounted onto charged glass slides. Paraffin embedded mouse bone sections were a kind gift from Dr. Catherine Foss and Dr. Collin Torok at Johns Hopkins University School of Medicine. The leg containing the tibia bone was harvested from a 12-week-old female athymic nu/nu mouse. The muscle tissues were manually trimmed, and the bone was fixed in 10% neutral-buffered formalin at room temperature overnight. The bone was demineralized in Decal Stat solution (Decal Chemical, Suffern, N.Y.) for 3 hr at room temperature, embedded in paraffin and sectioned to 4 μm at Tissue Microarray Facility of Johns Hopkins University. The formalin-fixed normal and fibrotic rat livers were a kind gift from Jie Yan and Yuzhan Kang at National University of Singapore. The tissues were sectioned to 10 μm thickness on glass slides and stained by Masson trichrome by the Reference Histology Laboratory, Johns Hopkins Medical Institutions.
Immunohistochemistry. Frozen fixed tissue slides were allowed to equilibrate to room temperature and dried under air flow. The tissue sections were permeabilized by cold methanol at −20° C. for 10 min, and incubated in 1×PBS solution. The paraffin embedded bone sections were de-paraffinized by two cycles of 5 min xylene wash, two cycles of 5 min 100% ethanol wash, and two cycles of 5 min 95% ethanol wash followed by soaking in 1×PBS solutions. […]

Entries after “also recorded” stand apart in the source; their conditions may differ.

T1 sequence (P02454 152-1207 limits assumed): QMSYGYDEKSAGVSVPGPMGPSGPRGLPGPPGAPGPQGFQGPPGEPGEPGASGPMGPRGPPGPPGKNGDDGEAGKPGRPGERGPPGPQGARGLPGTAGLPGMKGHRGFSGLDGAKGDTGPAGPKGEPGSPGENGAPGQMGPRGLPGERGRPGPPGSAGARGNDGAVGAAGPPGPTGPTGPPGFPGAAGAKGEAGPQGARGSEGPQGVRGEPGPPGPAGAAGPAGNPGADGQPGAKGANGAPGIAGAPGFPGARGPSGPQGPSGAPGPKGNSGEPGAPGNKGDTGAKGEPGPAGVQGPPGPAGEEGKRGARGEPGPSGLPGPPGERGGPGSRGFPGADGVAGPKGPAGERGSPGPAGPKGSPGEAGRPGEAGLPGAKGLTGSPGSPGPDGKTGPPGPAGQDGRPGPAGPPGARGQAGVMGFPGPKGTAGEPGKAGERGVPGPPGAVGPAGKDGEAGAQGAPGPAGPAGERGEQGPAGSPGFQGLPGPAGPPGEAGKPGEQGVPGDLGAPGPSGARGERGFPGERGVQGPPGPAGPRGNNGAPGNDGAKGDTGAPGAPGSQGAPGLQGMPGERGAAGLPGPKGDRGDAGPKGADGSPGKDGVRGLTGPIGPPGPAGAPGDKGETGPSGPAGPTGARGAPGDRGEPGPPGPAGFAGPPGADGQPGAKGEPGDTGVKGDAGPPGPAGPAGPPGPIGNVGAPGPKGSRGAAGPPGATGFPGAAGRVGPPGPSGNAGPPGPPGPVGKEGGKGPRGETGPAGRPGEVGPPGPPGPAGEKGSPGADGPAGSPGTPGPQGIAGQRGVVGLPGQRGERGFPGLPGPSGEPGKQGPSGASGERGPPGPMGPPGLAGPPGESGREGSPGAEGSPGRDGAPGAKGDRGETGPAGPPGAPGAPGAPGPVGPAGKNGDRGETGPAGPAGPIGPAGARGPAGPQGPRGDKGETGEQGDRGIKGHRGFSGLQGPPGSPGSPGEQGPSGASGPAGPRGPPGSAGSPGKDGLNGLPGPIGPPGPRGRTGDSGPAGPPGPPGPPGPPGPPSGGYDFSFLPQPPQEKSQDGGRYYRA
T1 sequence (P02466 86-1125 limits assumed): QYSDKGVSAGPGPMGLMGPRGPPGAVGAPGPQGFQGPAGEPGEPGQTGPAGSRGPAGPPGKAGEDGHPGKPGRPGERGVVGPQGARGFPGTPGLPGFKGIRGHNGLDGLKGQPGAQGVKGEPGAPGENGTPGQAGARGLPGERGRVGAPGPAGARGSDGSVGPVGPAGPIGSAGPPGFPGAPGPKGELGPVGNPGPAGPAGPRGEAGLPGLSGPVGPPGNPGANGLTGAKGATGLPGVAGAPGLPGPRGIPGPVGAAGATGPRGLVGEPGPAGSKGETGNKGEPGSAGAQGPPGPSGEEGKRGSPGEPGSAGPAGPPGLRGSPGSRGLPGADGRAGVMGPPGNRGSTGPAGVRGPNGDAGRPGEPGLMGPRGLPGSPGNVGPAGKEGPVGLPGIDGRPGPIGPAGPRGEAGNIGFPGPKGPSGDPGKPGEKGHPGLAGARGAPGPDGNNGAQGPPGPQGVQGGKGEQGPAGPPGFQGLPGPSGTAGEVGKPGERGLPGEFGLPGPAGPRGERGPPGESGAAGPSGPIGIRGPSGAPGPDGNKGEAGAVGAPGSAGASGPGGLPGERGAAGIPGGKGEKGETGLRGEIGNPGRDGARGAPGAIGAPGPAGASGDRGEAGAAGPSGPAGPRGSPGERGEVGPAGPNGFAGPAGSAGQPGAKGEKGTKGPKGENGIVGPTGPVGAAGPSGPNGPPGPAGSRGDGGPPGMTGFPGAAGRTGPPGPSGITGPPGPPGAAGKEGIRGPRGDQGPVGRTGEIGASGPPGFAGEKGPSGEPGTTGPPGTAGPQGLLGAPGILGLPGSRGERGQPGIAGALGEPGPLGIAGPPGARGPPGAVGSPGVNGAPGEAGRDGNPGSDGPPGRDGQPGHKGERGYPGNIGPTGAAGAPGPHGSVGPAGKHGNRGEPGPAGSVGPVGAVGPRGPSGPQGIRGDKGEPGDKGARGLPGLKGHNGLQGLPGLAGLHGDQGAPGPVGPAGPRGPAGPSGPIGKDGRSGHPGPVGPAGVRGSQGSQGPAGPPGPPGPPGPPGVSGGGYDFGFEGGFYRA

As to CF-GGG-(GPO)4^NBGPO(GPO)4 [CF^NB(GPO)9], the “collagen binding with and without UV exposure” value in assay [1] (4° C., intact type I collagen films) was “collagen binding was observed only after exposing the sample to UV light”. Also, in assay [1] (caged, UV−), the “binding (fluorescence intensity of film)” value is recorded as “negligible”. For the same substance, the “binding affinity to gelatin (fluorescence level)” value in assay [2] was “confirmed for both type I and type II gelatin”.

For the substance CF-GGG-(GPO)9 [CF(GPO)9], the “staining of fixed mouse skin and cornea sections” value in assay [3] was “effectively stained”. The “staining of demineralized, fixed, paraffin embedded mouse tibia bone sections” value in assay [3] (data not shown) is “strong”. The “CMP binding lower by a factor of, compared to UV-triggered binding of CF^NB(GPO)9” value in assay [1] (non-caged, triple helical, with UV exposure, 4° C.) is 11. In assay [1] (thermally melted at 75° C., non-caged), the “heat-induced binding level compared to photo-triggered caged CF^NB(GPO)9” value is on record as “significantly elevated binding levels; also recorded: significantly higher binding level”.

Turning to “CF-GGG-PGOGPGPOPOGOGOPPGOOPGGOOPPG [CF^SG9P9O9, reference compound]”, in assay [3], the “staining of fixed mouse skin and cornea sections” value was “no discernible binding”. Moreover, the “binding affinity to gelatin (fluorescence level)” value in assay [2] is recorded as “negligible affinity to gelatin”.

(Values after patent US10426850B2, “Collagen mimetic peptides for targeting collagen strands for in vitro and in vivo imaging and therapeutic use” (The Johns Hopkins University, priority 2011, dated 2019).)
